The record followed here is ChEMBL document CHEMBL1201862, “PubChem BioAssay data set” (2004).

Common to all, as to test: inhibition of tumour cell growth, NCI panel, 48 h
Experiment [1] concerns EKVX.
The test system of experiment [2] is HCC 2998.
In experiment [3] the test system is HCT-15.
Experiment [4] deals with HL-60.
Experiment [5] deals with M14.
In experiment [6] the test system is OVCAR-3.
Experiment [7] concerns OVCAR-8.
In experiment [8] the test system is SF-539.
The subject of experiment [9] is SK-MEL-28.
For experiment [10], the system named is SK-MEL-2.
Experiment [11] concerns SN12C.
Experiment [12] deals with SNB-19.
For experiment [13], the system named is TK-10.
For experiment [14], the system named is UACC-62.
Experiment [15] concerns HT-29.
Experiment [16] concerns Malme-3M.
Experiment [17] deals with OVCAR-5.

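Grown in 96-well plates, cells were treated for 48 hours with each compound at five concentrations. Insufficient inhibition: endpoint recorded as highest concentration tested. GI50 marks 50% less growth.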 The source made the active and inactive calls. No stated cut-off is given here; in the data, active = GI50 up to about 1.1 µM and inactive = higher. Bounds are passed on as bounds.

On to `COC(=O)C1CCC(=O)N1/C(C)=N/NC(=O)Nc1ccc(Cl)c(Cl)c1` (configuration not stated), for which the GI50 was > 100 µM (inactive) in [1]; > 100 µM (inactive) in experiment [2]; 14.4 µM in experiment [3]; > 100 µM (inactive) in experiment [4]; > 100 µM (inactive) in [5]; > 100 µM (inactive) in [6]. The GI50 in experiment [7], in [8], in experiment [9], in [10], in experiment [11] and in [12] was > 100 µM (inactive) in each case. For the same compound, the GI50 is 88.1 µM (inactive) in experiment [13] and 10.5 µM (inactive) in experiment [14].

`COc1cc(/C=C/C2=C(C#N)C(=O)OC2(C)C)ccc1O`: the GI50 in experiment [1] was > 100 µM (inactive); in experiment [2], 71.9 µM (inactive); in experiment [3], 28 µM; in [4], 22.4 µM (inactive); in experiment [15] it was 48.2 µM (inactive); in experiment [16], > 100 µM (inactive). Also, the GI50 in [6] was > 100 µM (inactive); in experiment [17], > 100 µM (inactive); in [7] it was 51.8 µM (inactive); in experiment [9] it was > 100 µM (inactive); in experiment [10] it was > 100 µM (inactive); in experiment [11] it was 55 µM (inactive). The GI50 in experiment [12], in experiment [13] and in experiment [14] was > 100 µM (inactive) in each case.

On to `COc1cc(C2c3cc4c(cc3[C@@H](Nc3ccc(N5CCOCC5)cc3)C3COC(=O)[C@H]23)OCO4)cc(OC)c1O` (some centres not stated), for which the GI50 in [1] is 1.97 µM (inactive); in experiment [2] it was 1.99 µM (inactive); in experiment [3], 0.993 µM; in experiment [4], 0.0319 µM (active); in [15], 1.65 µM (inactive); in experiment [16] it was 1.89 µM (inactive). Also, the GI50 in experiment [6] was 2.86 µM (inactive); in experiment [17], 1.82 µM (inactive); in experiment [7], 1.32 µM (inactive); in experiment [8], 0.571 µM (active); in experiment [9], 3.82 µM (inactive); in [10] it was 2.46 µM (inactive). The GI50 was 0.388 µM (active) in experiment [11], 0.2 µM (active) in experiment [12] and 0.525 µM (active) in experiment [14].

As for `COc1cc(C2c3cc4c(cc3[C@@H](Nc3cccc(C(C)=O)c3)C3COC(=O)[C@H]23)OCO4)cc(OC)c1O` (some centres not stated), the GI50 in experiment [1] is 2.21 µM (inactive); in [2], 1.34 µM (inactive); in experiment [3], 0.307 µM; in experiment [4] it was < 0.0327 µM (active); in [15] it was 1.1 µM (active); in experiment [16], 1.28 µM (inactive). The GI50 was 1.91 µM (inactive) in experiment [6]; 2.1 µM (inactive) in experiment [17]; 0.968 µM (active) in experiment [7]; 0.243 µM (active) in [8]; 3.01 µM (inactive) in experiment [9]; 2.65 µM (inactive) in experiment [10]. The GI50 in experiment [11] is 0.405 µM (active); in experiment [12], 0.236 µM (active); in experiment [14] it was 0.233 µM (active).

Turning to `CCCCOP1(=O)C=CC(Cl)=C(C)C1` (configuration not stated), the GI50 in experiment [1] was 70.3 µM (inactive); in experiment [2], > 10 µM (inactive); in experiment [3] it was 13.1 µM; in experiment [4], 16.1 µM (inactive); in experiment [15] it was 22 µM (inactive); in experiment [5], 33.3 µM (inactive). Also, the GI50 in [16] was 19.5 µM (inactive); in experiment [6], 24.7 µM (inactive); in [7] it was 21.6 µM (inactive); in [8], 18.5 µM (inactive); in experiment [9] it was 16.3 µM (inactive); in experiment [10] it was 12.4 µM (inactive). Further, the GI50 was 20 µM (inactive) in experiment [11], 51.9 µM (inactive) in experiment [12], 36.6 µM (inactive) in experiment [13] and 22.3 µM (inactive) in experiment [14].

As to `CC1C[C@]2(C[C@@H](C)C(=O)O2)OC2CC3(C)C4CCC5C(C)(C)OC(=O)CC[C@@]56C[C@@]46CC[C@]3(C)C12` (some centres not stated), the GI50 is > 100 µM (inactive) in experiment [1]; > 100 µM (inactive) in [2]; over 100 µM in experiment [3]; 69.8 µM (inactive) in experiment [4]; > 100 µM (inactive) in experiment [15]; > 100 µM (inactive) in experiment [5]. The GI50 in experiment [16], in [17], in [7], in [8], in [9] and in experiment [10] was > 100 µM (inactive) each time. Also, the GI50 in experiment [11], in experiment [12] and in experiment [13] was > 100 µM (inactive) throughout.

Regarding `COc1ccc(C2C(C(=O)O)=C(COC(C)=O)Oc3cc4c(cc32)OCO4)cc1` (configuration not stated), the GI50 was > 100 µM (inactive) in experiment [1]; over 100 µM in [3]; > 100 µM (inactive) in experiment [4]; > 100 µM (inactive) in [15]; > 100 µM (inactive) in [5]; > 100 µM (inactive) in [16]. The GI50 in experiment [6], in experiment [7], in [9], in experiment [11], in experiment [12] and in experiment [13] was > 100 µM (inactive) throughout. Moreover, the GI50 in experiment [14] was > 100 µM (inactive).

As to `CCCCCCCCCCCC1=C(O)C(=O)C=C(O)C1=O` [EMBELIN], the GI50 in experiment [1] was 7.31 µM (inactive); in experiment [2], 4.72 µM (inactive); in experiment [3], 5.11 µM; in experiment [4], 3.95 µM (inactive); in experiment [15], 8.15 µM (inactive); in [16], 5.81 µM (inactive). In addition, the GI50 in experiment [6] was 4.71 µM (inactive); in [17], 8.83 µM (inactive); in experiment [7], 2.01 µM (inactive); in experiment [8], 6.76 µM (inactive); in experiment [9], 6.67 µM (inactive); in experiment [10], 5.11 µM (inactive). Besides, the GI50 in [11] was 4.73 µM (inactive); in experiment [12] it was 16.3 µM (inactive); in experiment [14], 4.11 µM (inactive).

For `C/C([O-])=C(/c1nc(-c2ccc([N+](=O)[O-])o2)no1)[n+]1cc(C)ccc1C`, the GI50 is 58.6 µM (inactive) in experiment [1]; 13 µM (inactive) in experiment [2]; 7.03 µM in [3]; 9.79 µM (inactive) in experiment [15]; 14.3 µM (inactive) in experiment [16]; 19.6 µM (inactive) in [6]. The GI50 in experiment [17] is 21.8 µM (inactive); in [7] it was 19.8 µM (inactive); in [8], 4.99 µM (inactive); in experiment [9], 12.7 µM (inactive); in experiment [10], 7.94 µM (inactive); in experiment [11], 13.6 µM (inactive). The GI50 in experiment [12] is 26.7 µM (inactive); in experiment [14] it was 7.21 µM (inactive).

In the case of `Nc1nnc(N)n1NC(=O)C(=O)Nc1ccc([N+](=O)[O-])cc1`, the GI50 in [1] is > 100 µM (inactive); in experiment [2], > 100 µM (inactive); in experiment [3] it was over 100 µM; in experiment [4], > 100 µM (inactive); in experiment [15], > 100 µM (inactive); in experiment [16], > 100 µM (inactive). Also, the GI50 in [17], in experiment [7], in [8], in experiment [9], in [10] and in experiment [11] was > 100 µM (inactive) each time. The results for the GI50 in [12], in experiment [13] and in [14] were > 100 µM (inactive), > 100 µM (inactive) and 49.1 µM (inactive), respectively.
